From ChEMBL document CHEMBL1146719, “Lysyl 4-aminobenzoic acid derivatives as potent small molecule mimetics of plasminogen kringle 5” (Bioorg Med Chem Lett, 2004)
Peptide text beside a SMILES is read from it.

Species on record: Homo sapiens
Assay: Inhibition of VEGF-stimulated migration of human microvascular endothelial cells
Format: functional, cell-based
Conditions: Endothelial cell

IC50: 1.2 nM
Structure (SMILES): CC(=O)N[C@@H](CCCCN)C(=O)N[C@@H](CC(C)C)C(=O)N[C@@H](Cc1ccc(O)cc1)C(=O)N[C@@H](CC(=O)O)C(=O)O (Ac-KLYD-OH)
